In patent US7232912B2, “Indazole compounds, pharmaceutical compositions, and methods for mediating or inhibiting cell proliferation” (Agouron Pharmaceuticals, Inc., priority 2000, dated 2007):

Tests used:
[1] = target: CDK4/cyclin D3 (Homo sapiens, UniProt P11802); assay: Inhibition of CDK4/Cyclin D Retinoblastoma Kinase Activity; assay type: biochemical; conditions: apparent Ki
How it was run: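 Human CDK4/cyclin D3 (full-length or cyclin D3 1–264), insect-cell expressed, at 5 or 50 nM with His-tagged Rb 386–928 substrate, 25 μM ATP plus [32P/33P]ATP, pH 7.4, 2% DMSO, 30 °C for 20 min; tight binders used 5 nM enzyme for 60 min. Filter-captured phospho-Rb quantified by phosphorimager. Apparent Ki from competitive or tight-binding inhibition fits.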

[2] = target: T1, CDK2/cyclin A (Homo sapiens, UniProt P24941); assay: Inhibition of CDK2/Cyclin A Retinoblastoma Kinase Activity; assay type: biochemical; conditions: apparent Ki
T1 construct: made in house; host or cells: CDK2: insect cells (baculovirus); cyclin A: E. coli
How it was run: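 Baculovirus-expressed CDK2 complexed with proteolyzed cyclin A, at 150 nM or 5 nM, phosphorylating an Rb fragment with 25 µM [32/33P]ATP in HEPES pH 7.4, 2% DMSO. Reactions run 20 min at 30°C, EDTA-stopped, filter-captured; apparent Ki from competitive or tight-binding competitive fits.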

[3] = target: T2, human CHK1 (Homo sapiens, UniProt O14757); assay: CHK1 Assay (coupled spectrophotometric); assay type: biochemical
T2 construct: C-terminally His-tagged full-length human CHK1 (FL-CHK1) was expressed using the baculovirus/insect cell system; made in house; host or cells: baculovirus/insect cells
T2 sequence (O14757 1-476): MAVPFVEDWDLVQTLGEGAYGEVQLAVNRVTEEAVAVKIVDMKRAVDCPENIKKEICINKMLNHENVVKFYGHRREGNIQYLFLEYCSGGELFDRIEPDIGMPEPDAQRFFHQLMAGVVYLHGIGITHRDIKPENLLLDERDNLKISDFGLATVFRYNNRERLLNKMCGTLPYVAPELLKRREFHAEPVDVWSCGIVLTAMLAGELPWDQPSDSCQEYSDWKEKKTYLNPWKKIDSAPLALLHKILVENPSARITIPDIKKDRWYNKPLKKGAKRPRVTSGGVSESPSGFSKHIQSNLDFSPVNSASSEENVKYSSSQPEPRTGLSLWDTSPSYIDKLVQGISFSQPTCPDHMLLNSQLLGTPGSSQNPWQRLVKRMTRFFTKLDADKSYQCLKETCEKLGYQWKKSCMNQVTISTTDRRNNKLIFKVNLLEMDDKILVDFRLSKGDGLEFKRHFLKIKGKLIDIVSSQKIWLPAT
From the text: C-terminally His-tagged full-length human CHK1 (FL-CHK1) was expressed using the baculovirus/insect cell system. It contains 6 histidine residues (6×His-tag) at the C-terminus of the 476 amino acid human CHK1. The protein was purified by conventional chromatographic techniques.
The production of ADP from ATP that accompanies phosphoryl transfer to the synthetic substrate peptide Syntide-2 ([…]) was coupled to oxidation of NADH using phosphoenolpyruvate (PEP) through the actions of pyruvate kinase (PK) and lactic dehydrogenase (LDH). The oxidation of NADH was monitored by following the decrease of absorbance at 340 nm (ε340=6.22 cm^−1 mM^−1) using a HP8452 spectrophotometer. Typical reaction solutions contained: […]; 0.15 mM NADH; 28 units of LDH/ml; 16 units of PK/ml; 3 mM DTT; 0.125 mM Syntide-2; 0.15 mM ATP; 25 mM MgCl2 in 50 mM TRIS, pH 7.5; and 400 mM NaCl. Assays were initiated with 10 nM of FL-CHK1. Ki values were determined by measuring initial enzyme activity in the presence of varying concentrations of test compounds. The data were analyzed using Enzyme Kinetic and Kaleidagraph software.

[4] = target: T3, LCK tyrosine kinase (Homo sapiens, UniProt P06239, C224D/P223M); assay: Inhibition of phosphorylated LCK tyrosine kinase activity; assay type: biochemical; conditions: read-out: LCK % Inhib. at 1 μM
T3 construct: starting from amino acid 223 to the end of the protein at amino acid 509; made in house; host or cells: insect cells
T3 sequence (P06239 223-509 P223M/C224D): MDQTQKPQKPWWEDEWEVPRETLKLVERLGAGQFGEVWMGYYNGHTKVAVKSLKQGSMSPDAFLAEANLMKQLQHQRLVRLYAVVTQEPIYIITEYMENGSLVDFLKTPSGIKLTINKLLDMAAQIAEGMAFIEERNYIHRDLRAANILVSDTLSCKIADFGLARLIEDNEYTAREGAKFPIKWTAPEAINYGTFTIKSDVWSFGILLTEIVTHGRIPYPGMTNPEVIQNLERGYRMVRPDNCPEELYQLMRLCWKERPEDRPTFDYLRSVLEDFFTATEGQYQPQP
Description: (§1) Inhibition of Phosphorylated FGF Receptor and LCK Tyrosine Kinase Activity
(§2) Cloning, expression and purification of the cytosolic domain of FGFR1 tyrosine kinase (amino acids 456–766) containing three amino acid substitutions (L457V, C488A, and C584S) were conducted as previously described (Mohammadi, M., Schlessinger, J., & Hubbard, S. R. (1996) Cell 86, 577–587). This domain was expressed in Sf9 insect cells using a baculovirus expression vector, and protein was purified using conventional techniques. The LCK tyrosine kinase was expressed in insect cells as an N-terminal deletion starting from amino acid 223 to the end of the protein at amino acid 509. The N-terminus of the protein also had two amino acid substitutions, P223M and C 224D. Kinases were purified using conventional chromatographic methods.
(§3) Tyrosine kinase activity was measured using a coupled, continuous spectrophotometric assay, in which production of phosphorylated poly(Glu, Tyr; 4:1) substrate and ADP is coupled to the pyruvate kinase-catalyzed transfer of a phosphate from phosphoenolpyruvate to ADP, with generation of pyruvate and regeneration of ATP. Pyruvate production is in turn coupled to the lactate dehydrogenase-catalyzed reduction of pyruvate to form lactate, with concomitant conversion of NADH to NAD+. Loss of NADH is monitored by measuring absorbance at 340 nm (see e.g., Technikova-Dobrova et al., “Spectrophotometric determination of functional characteristics of protein kinases with coupled enzymatic assay,” FEBS Letters, vol. 292 (1991), pp. 69–72). Enzyme activity was measured in the presence of 200 mM HEPES (pH 7.5), 2 mM phosphoenolpyruvate, 0.3 mM NADH, 20 mM MgCl2, 100 μM ATP, 5 mM DTT, 5.1 or 25 mM poly (Glu,Tyr) 4:1 for P-FGF or P-LCK assays, respectively, and 15 units/mL each of pyruvate kinase and lactate dehydrogenase. Phosphorylated FGF receptor kinase was present at 100 nM and phosphorylated LCK kinase was present at 50 nM. Assays were performed under initial rate conditions at 37° C., and rates were corrected for any background rate measured in the absence of enzyme. Percent inhibition was calculated relative to control enzyme assayed in the presence of 2% (v/v) DMSO.

[5] = target: T4, FGFR1 tyrosine kinase (Homo sapiens, UniProt P11362, C488A/C584S/L457V); assay: Inhibition of phosphorylated FGF receptor tyrosine kinase activity; assay type: biochemical; conditions: read-out: FGF % Inhib. at 1 μM
T4 construct: the cytosolic domain of FGFR1 tyrosine kinase (amino acids 456–766); made in house; host or cells: Sf9 insect cells (baculovirus)
T4 sequence (P11362 456-766 L457V/C488A/C584S): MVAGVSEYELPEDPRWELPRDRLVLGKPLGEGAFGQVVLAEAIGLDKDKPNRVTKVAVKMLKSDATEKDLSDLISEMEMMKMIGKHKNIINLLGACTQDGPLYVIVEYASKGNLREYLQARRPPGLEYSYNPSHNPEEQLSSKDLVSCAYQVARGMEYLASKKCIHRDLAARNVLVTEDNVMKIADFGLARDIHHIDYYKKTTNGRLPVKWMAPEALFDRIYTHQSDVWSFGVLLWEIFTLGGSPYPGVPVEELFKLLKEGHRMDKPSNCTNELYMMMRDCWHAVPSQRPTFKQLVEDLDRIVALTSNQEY
Description: as §1, §2, §3

[6] = system: FAK; assay: Coupled Spectrophotometric (FAK) Assay; assay type: biochemical
Description: Coupled Spectrophotometric (FAK) Assay
Tyrosine kinase assays were monitored using a Beckman DU 650 Spectrophotometer. Production of ADP was coupled to oxidation of NADH using phosphoenolpyruvate (PEP) through the actions of pyruvate kinase (PK) and lactic dehydrogenase (LDH). The oxidation of NADH was monitored by following the decrease in absorbance at 340 nm (ε340=6.22 cm^−1 mM^−1). Typical reaction solutions contained: 1 mM PEP, 250 μM NADH, 50 units of LDH/mL, 20 units of PK/mL, 5 mM DTT, in 200 mM Hepes, pH 7.5 and varying concentrations of poly(E4Y1), ATP and MgCl2. Assays were initiated with 40 nM of […].

[7] = system: HCT 116 cell line; assay: Inhibition of Cell Growth (MTT tetrazolium salt assay); assay type: cell-based; conditions: Homo sapiens, HCT 116, MTT; for IC50: 50% inhibition of growth, read-out: HCT 116 IC50; for IC90: read-out: HCT 116 IC90
How it was run: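 HCT 116 cells in McCoy's 5A were dosed 4 h after plating, in 0.5% (v/v) DMSO, then held 4–6 days at 37 °C, 5% CO2. MTT at 0.2 mg/mL final for 4 h; DMSO-solubilized formazan read at 540 nm. IC50 taken from the linear part of a semi-log plot versus DMSO-only controls.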

Chain of CDK4/cyclin D3 (P11802 2-303 limits assumed): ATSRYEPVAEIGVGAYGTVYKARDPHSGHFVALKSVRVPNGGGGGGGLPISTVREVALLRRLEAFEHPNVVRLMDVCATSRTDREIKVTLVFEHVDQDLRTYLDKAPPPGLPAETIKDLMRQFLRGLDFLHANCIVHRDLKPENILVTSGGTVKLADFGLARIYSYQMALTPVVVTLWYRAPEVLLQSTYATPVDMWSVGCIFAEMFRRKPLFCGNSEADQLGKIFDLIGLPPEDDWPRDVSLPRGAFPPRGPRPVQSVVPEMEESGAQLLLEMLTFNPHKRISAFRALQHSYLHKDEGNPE
Chain of CDK4/cyclin D3 (P30281 1-264 limits assumed, further chain): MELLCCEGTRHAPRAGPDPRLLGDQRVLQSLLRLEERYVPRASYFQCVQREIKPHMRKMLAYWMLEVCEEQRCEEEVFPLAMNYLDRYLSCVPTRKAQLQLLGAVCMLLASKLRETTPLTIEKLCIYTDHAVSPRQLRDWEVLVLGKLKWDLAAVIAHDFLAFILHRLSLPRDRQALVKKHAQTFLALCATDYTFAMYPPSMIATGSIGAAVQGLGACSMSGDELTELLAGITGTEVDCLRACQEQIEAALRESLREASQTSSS

Compound	Ki [1] [µM]	Ki [2] [µM]	Ki [3] [µM]	inhibition at 1 µM [4] [%]	inhibition at 1 µM [5] [%]	FAK % Inhibition at 1 μM [6] [%]	IC50 [7] [µM]	IC90 [7] [µM]	inhibition at 20 µM [3] [%]	melting point [°C]
Cc1c(O)cccc1-c1ccc2[nH]nc(-c3nc4c(O)cccc4[nH]3)c2c1 [Example 21, 2-[5-(3-Hydroxy-2-methyl-phenyl)-1H-indazol-3-yl]-1H-benzoimidazol-4-ol]	0.237	0.049	8.55	23	54	–	–	–	–	–
Nc1ccc2[nH]nc(-c3ccc[nH]3)c2c1 [Example 84, 5-Amino-3-(2-Pyrrolyl)-1H-indazole]	34	28	22.5	–	–	–	–	–	–	–
C(=C\c1n[nH]c2ccc(-c3ccccc3)cc12)/c1ccccc1 [Example 1, 5-Phenyl-3-Styryl-1H-Indazole]	1.7	11	6.7	–	–	32	–	–	–	–
Clc1ccncc1-c1ccc2[nH]nc(/C=C/c3ccccc3)c2c1 [Example 42, 5-(4-Chloro-pyridin-3-yl)-3-(E)-styryl-1H-indazole]	0.0082	0.0172	–	–	70.3	78	3	5	–	–
c1ccc(-c2ccc3[nH]nc(-c4nc5ccccc5[nH]4)c3c2)cc1 [Example 3, 3-(1H-Benzoimidazol-2-yl)-5-Phenyl-1H-indazole]	0.37	0.24	–	–	–	–	–	–	75	80 to 82
OC1CCCN(c2ccc3[nH]nc(/C=C/c4ccccc4)c3c2)C1 (stereo not shown) [Example 28, 1-[3-((E)Styryl)-1H-indazol-5-yl]-piperidin-3-ol]	0.68	0.72	–	–	–	61	–	–	–	–
Nc1cccc2c(-c3ccc4[nH]nc(/C=C/c5ccccc5)c4c3)cncc12 [Example 45]	0.012	0.017	–	–	58.7	63	2.1	5	–	–
Clc1cccc2[nH]c(-c3n[nH]c4ccc(-c5cncc6ccccc56)cc34)nc12 [Example 19, 4-[3-(4-Chloro-1H-benzoimidazol-2-yl)-1H-indazol-5-yl]-isoquinoline]	0.054	0.001	–	–	31.3	–	0.78	1.6	–	–
OC1CCN(c2ccc3[nH]nc(/C=C/c4ccccc4)c3c2)CC1 [Example 27, 1-[3-((E)Styryl)-1H-indazol-5-yl]-piperidin-4-ol]	1.5	1.6	–	–	–	44	–	–	–	–
COc1cccc(-c2ccc3[nH]nc(-c4nc5ccccc5[nH]4)c3c2)c1 [Example 5, 3-(1H-Benzoimidazol-2-yl)-5-(3-methoxyphenyl)-1H-indazole]	0.48	0.69	–	–	–	–	–	–	56	–
Cc1ccncc1-c1ccc2[nH]nc(/C=C/c3ccccc3)c2c1 [Example 43, 5-(4Methyl-pyridin-3-yl)-3-(E)styryl-1H-indazole]	0.015	0.029	–	–	59.6	–	1.9	5	–	–
c1ccc2c(-c3ccc4[nH]nc(-c5nc6c(CN7CCCC7)cccc6[nH]5)c4c3)cncc2c1 [Example 33, 4-[3-(4Pyrrolidin-1-ylmethyl-1H-benzoimidazol-2-yl)-1H-indazol-5-yl]-isoquinoline]	0.0011	0.001	–	–	51.6	–	0.055	0.16	–	–
